Reference: patent US20250255867A1 (Kadmon Corporation, LLC, priority 2022, published 2025)

Settings: Cohort 3 400 mg QD

SMILES: CC(C)NC(=O)COc1cccc(-c2nc(Nc3ccc4[nH]ncc4c3)c3ccccc3n2)c1 [Belumosudil, 2-{3-[4-(1H-indazol-5-ylamino)-2-quinazolinyl]phenoxy}-N-(propan-2-yl) acetamide]
- Glaucoma: Affected/At Risk (%): (0%)
- Glucose urine present: # Events: 3
- Glucose urine present: Affected/At Risk: 1/21
- Glucose urine present: Affected/At Risk (%): (4.76%)
- Graft versus host disease in gastrointestinal tract: # Events: 0
- Graft versus host disease in gastrointestinal tract: Affected/At Risk: 0/21
- Graft versus host disease in gastrointestinal tract: Affected/At Risk (%): (0%)
- Gynaecomastia: # Events: 0
- Gynaecomastia: Affected/At Risk: 0/21
- Gynaecomastia: Affected/At Risk (%): (0%)
- Haematuria: # Events: 2
- Haematuria: Affected/At Risk: 1/21
- Haematuria: Affected/At Risk (%): (4.76%)
- Hair growth abnormal: # Events: 0
- Hair growth abnormal: Affected/At Risk: 0/21
- Hair growth abnormal: Affected/At Risk (%): (0%)
- Headache: # Events: 8
- Headache: Affected/At Risk: 6/21
- Headache: Affected/At Risk (%): (28.57%)
- Hodgkin's disease recurrent: # Events: 0
- Hodgkin's disease recurrent: Affected/At Risk: 0/21
- Hodgkin's disease recurrent: Affected/At Risk (%): (0%)
- Hordeolum: # Events: 1
- Hordeolum: Affected/At Risk: 1/21
- Hordeolum: Affected/At Risk (%): (4.76%)
- Hot flush: # Events: 0
- Hot flush: Affected/At Risk: 0/21
- Hot flush: Affected/At Risk (%): (0%)
- Hyperglycemia: # Events: 8
- Hyperglycemia: Affected/At Risk: 3/21
- Hyperglycemia: Affected/At Risk (%): (14.29%)
- Hyperhidrosis: # Events: 1
- Hyperhidrosis: Affected/At Risk: 1/21
- Hyperhidrosis: Affected/At Risk (%): (4.76%)
- Hyperkalaemia: # Events: 4
- Hyperkalaemia: Affected/At Risk: 3/21
- Hyperkalaemia: Affected/At Risk (%): (14.29%)
- Hypertension: # Events: 6
- Hypertension: Affected/At Risk: 4/21
- Hypertension: Affected/At Risk (%): (19.05%)
- Hyperthyroidism: # Events: 1
- Hyperthyroidism: Affected/At Risk: 1/21
- Hyperthyroidism: Affected/At Risk (%): (4.76%)
- Hypertriglyceridaemia: # Events: 0
- Hypertriglyceridaemia: Affected/At Risk: 0/21
- Hypertriglyceridaemia: Affected/At Risk (%): (0%)
- Hyperuricaemia: # Events: 5
- Hyperuricaemia: Affected/At Risk: 3/21
- Hyperuricaemia: Affected/At Risk (%): (14.29%)
- Hypoaesthesia: # Events: 1
- Hypoaesthesia: Affected/At Risk: 1/21
- Hypoaesthesia: Affected/At Risk (%): (4.76%)
- Hypocalcaemia: # Events: 1
- Hypocalcaemia: Affected/At Risk: 1/21
- Hypocalcaemia: Affected/At Risk (%): (4.76%)
- Hypogonadism: # Events: 0
- Hypogonadism: Affected/At Risk: 0/21
- Hypogonadism: Affected/At Risk (%): (0%)
- Hypokalaemia: # Events: 0
- Hypokalaemia: Affected/At Risk: 0/21
- Hypokalaemia: Affected/At Risk (%): (0%)
- Hypomagnesaemia: # Events: 1
- Hypomagnesaemia: Affected/At Risk: 1/21
- Hypomagnesaemia: Affected/At Risk (%): (4.76%)
- Hyponatraemia: # Events: 2
- Hyponatraemia: Affected/At Risk: 2/21
- Hyponatraemia: Affected/At Risk (%): (9.52%)
- Hypophosphataemia: # Events: 1
- Hypophosphataemia: Affected/At Risk: 1/21
- Hypophosphataemia: Affected/At Risk (%): (4.76%)
- Hypothermia: # Events: 0
- Hypothermia: Affected/At Risk: 0/21
- Hypothermia: Affected/At Risk (%): (0%)
- Hypothyroidism: # Events: 4
- Hypothyroidism: Affected/At Risk: 3/21
- Hypothyroidism: Affected/At Risk (%): (14.29%)
- Hypoxia: # Events: 3
- Hypoxia: Affected/At Risk: 3/21
- Hypoxia: Affected/At Risk (%): (14.29%)
- Impaired healing: # Events: 0
- Impaired healing: Affected/At Risk: 0/21
- Impaired healing: Affected/At Risk (%): (0%)
- Influenza like illness: # Events: 0
- Influenza like illness: Affected/At Risk: 0/21
- Influenza like illness: Affected/At Risk (%): (0%)
- Influenza: # Events: 2
- Influenza: Affected/At Risk: 2/21
- Influenza: Affected/At Risk (%): (9.52%)
- Insomnia: # Events: 3
- Insomnia: Affected/At Risk: 3/21
- Insomnia: Affected/At Risk (%): (14.29%)
- Irritability: # Events: 0
- Irritability: Affected/At Risk: 0/21
- Irritability: Affected/At Risk (%): (0%)
- Joint range of motion decreased: # Events: 1
- Joint range of motion decreased: Affected/At Risk: 1/21
- Joint range of motion decreased: Affected/At Risk (%): (4.76%)
- Lacrimation increased: # Events: 0
- Lacrimation increased: Affected/At Risk: 0/21
- Lacrimation increased: Affected/At Risk (%): (0%)
- Leukaemia recurrent: # Events: 0
- Leukaemia recurrent: Affected/At Risk: 0/21
- Leukaemia recurrent: Affected/At Risk (%): (0%)
- Leukocytosis: # Events: 1
- Leukocytosis: Affected/At Risk: 1/21
- Leukocytosis: Affected/At Risk (%): (4.76%)
- Ligament sprain: # Events: 0
- Ligament sprain: Affected/At Risk: 0/21
- Ligament sprain: Affected/At Risk (%): (0%)
- Limb injury: # Events: 1
- Limb injury: Affected/At Risk: 1/21
- Limb injury: Affected/At Risk (%): (4.76%)
- Macular degeneration: # Events: 0
- Macular degeneration: Affected/At Risk: 0/21
- Macular degeneration: Affected/At Risk (%): (0%)
- Migraine: # Events: 0
- Migraine: Affected/At Risk: 0/21
- Migraine: Affected/At Risk (%): (0%)
- Muscle spasms: # Events: 6
- Muscle spasms: Affected/At Risk: 6/21
- Muscle spasms: Affected/At Risk (%): (28.57%)
- Muscle spasticity: # Events: 1
- Muscle spasticity: Affected/At Risk: 1/21
- Muscle spasticity: Affected/At Risk (%): (4.76%)
- Muscular weakness: # Events: 2
- Muscular weakness: Affected/At Risk: 2/21
- Muscular weakness: Affected/At Risk (%): (9.52%)
- Musculoskeletal chest pain: # Events: 1
- Musculoskeletal chest pain: Affected/At Risk: 1/21
- Musculoskeletal chest pain: Affected/At Risk (%): (4.76%)
- Myalgia: # Events: 3
- Myalgia: Affected/At Risk: 3/21
- Myalgia: Affected/At Risk (%): (14.29%)
- Nail disorder: # Events: 0
- Nail disorder: Affected/At Risk: 0/21
- Nail disorder: Affected/At Risk (%): (0%)
- Nasal congestion: # Events: 1
- Nasal congestion: Affected/At Risk: 1/21
- Nasal congestion: Affected/At Risk (%): (4.76%)
- Nausea: # Events: 12
- Nausea: Affected/At Risk: 9/21
- Nausea: Affected/At Risk (%): (42.86%)
- Neck pain: # Events: 0
- Neck pain: Affected/At Risk: 0/21
- Neck pain: Affected/At Risk (%): (0%)
- Nephrotic syndrome: # Events: 0
- Nephrotic syndrome: Affected/At Risk: 0/21
- Nephrotic syndrome: Affected/At Risk (%): (0%)
- Neuropathy peripheral: # Events: 2
- Neuropathy peripheral: Affected/At Risk: 1/21
- Neuropathy peripheral: Affected/At Risk (%): (4.76%)
- Neutrophil count decreased: # Events: 1
- Neutrophil count decreased: Affected/At Risk: 1/21
- Neutrophil count decreased: Affected/At Risk (%): (4.76%)
- Nocturia: # Events: 0
- Nocturia: Affected/At Risk: 0/21
- Nocturia: Affected/At Risk (%): (0%)
- Non-cardiac chest pain: # Events: 1
- Non-cardiac chest pain: Affected/At Risk: 1/21
- Non-cardiac chest pain: Affected/At Risk (%): (4.76%)
- Obesity: # Events: 0
- Obesity: Affected/At Risk: 0/21
- Obesity: Affected/At Risk (%): (0%)
- Oedema peripheral: # Events: 6
- Oedema peripheral: Affected/At Risk: 6/21
- Oedema peripheral: Affected/At Risk (%): (28.57%)
- Oedema: # Events: 0
- Oedema: Affected/At Risk: 0/21
- Oedema: Affected/At Risk (%): (0%)
- Oesophageal ulcer: # Events: 0
- Oesophageal ulcer: Affected/At Risk: 0/21
- Oesophageal ulcer: Affected/At Risk (%): (0%)
- Oral candidiasis: # Events: 0
- Oral candidiasis: Affected/At Risk: 0/21
- Oral candidiasis: Affected/At Risk (%): (0%)
- Oropharyngeal pain: # Events: 1
- Oropharyngeal pain: Affected/At Risk: 1/21
- Oropharyngeal pain: Affected/At Risk (%): (4.76%)
- Orthopnoea: # Events: 0
- Orthopnoea: Affected/At Risk: 0/21
- Orthopnoea: Affected/At Risk (%): (0%)
- Osteonecrosis: # Events: 0
- Osteonecrosis: Affected/At Risk: 0/21
- Osteonecrosis: Affected/At Risk (%): (0%)
- Osteopenia: # Events: 0
- Osteopenia: Affected/At Risk: 0/21
- Osteopenia: Affected/At Risk (%): (0%)
- Osteoporosis: # Events: 0
- Osteoporosis: Affected/At Risk: 0/21
- Osteoporosis: Affected/At Risk (%): (0%)
- Overdose: # Events: 0
- Overdose: Affected/At Risk: 0/21
- Overdose: Affected/At Risk (%): (0%)
- Pain in extremity: # Events: 5
- Pain in extremity: Affected/At Risk: 4/21
- Pain in extremity: Affected/At Risk (%): (19.05%)
- Pain: # Events: 1
- Pain: Affected/At Risk: 1/21
- Pain: Affected/At Risk (%): (4.76%)
- Palpitations: # Events: 1
- Palpitations: Affected/At Risk: 1/21
- Palpitations: Affected/At Risk (%): (4.76%)
- Paraesthesia: # Events: 1
- Paraesthesia: Affected/At Risk: 1/21
- Paraesthesia: Affected/At Risk (%): (4.76%)
- Participants with TEAE: 20 (95%) participants
- Participants with TESAE: 13 (62%) participants
- Pericardial effusion: # Events: 0
- Pericardial effusion: Affected/At Risk: 0/21
- Pericardial effusion: Affected/At Risk (%): (0%)
- Peripheral coldness: # Events: 0
- Peripheral coldness: Affected/At Risk: 0/21
- Peripheral coldness: Affected/At Risk (%): (0%)
- Peripheral sensory neuropathy: # Events: 0
- Peripheral sensory neuropathy: Affected/At Risk: 0/21
- Peripheral sensory neuropathy: Affected/At Risk (%): (0%)
- Phlebitis: # Events: 0
- Phlebitis: Affected/At Risk: 0/21
- Phlebitis: Affected/At Risk (%): (0%)
- Photophobia: # Events: 2
- Photophobia: Affected/At Risk: 2/21
- Photophobia: Affected/At Risk (%): (9.52%)
- Platelet count decreased: # Events: 0
- Platelet count decreased: Affected/At Risk: 0/21
- Platelet count decreased: Affected/At Risk (%): (0%)
- Pleural effusion: # Events: 1
- Pleural effusion: Affected/At Risk: 1/21
- Pleural effusion: Affected/At Risk (%): (4.76%)
- Pneumonia respiratory syncytial viral: # Events: 0
- Pneumonia respiratory syncytial viral: Affected/At Risk: 0/21
- Pneumonia respiratory syncytial viral: Affected/At Risk (%): (0%)
- Pneumonia: # Events: 0
- Pneumonia: Affected/At Risk: 0/21
- Pneumonia: Affected/At Risk (%): (0%)
- Pollakiuria: # Events: 0
- Pollakiuria: Affected/At Risk: 0/21
- Pollakiuria: Affected/At Risk (%): (0%)
- Presyncope: # Events: 0
- Presyncope: Affected/At Risk: 0/21
- Presyncope: Affected/At Risk (%): (0%)
- Productive cough: # Events: 2
- Productive cough: Affected/At Risk: 1/21
- Productive cough: Affected/At Risk (%): (4.76%)
- Proteinuria: # Events: 0
- Proteinuria: Affected/At Risk: 0/21
- Proteinuria: Affected/At Risk (%): (0%)
- Pruritus: # Events: 0
- Pruritus: Affected/At Risk: 0/21
- Pruritus: Affected/At Risk (%): (0%)
- Pseudomonas infection: # Events: 0
- Pseudomonas infection: Affected/At Risk: 0/21
- Pseudomonas infection: Affected/At Risk (%): (0%)
- Pulmonary mass: # Events: 1
- Pulmonary mass: Affected/At Risk: 1/21
- Pulmonary mass: Affected/At Risk (%): (4.76%)
- Pyrexia: # Events: 3
- Pyrexia: Affected/At Risk: 3/21
- Pyrexia: Affected/At Risk (%): (14.29%)
- Rash erythematous: # Events: 0
- Rash erythematous: Affected/At Risk: 0/21
- Rash erythematous: Affected/At Risk (%): (0%)
- Rash maculo-papular: # Events: 0
- Rash maculo-papular: Affected/At Risk: 0/21
- Rash maculo-papular: Affected/At Risk (%): (0%)
- Rash pustular: # Events: 0
- Rash pustular: Affected/At Risk: 0/21
- Rash pustular: Affected/At Risk (%): (0%)
- Rash: # Events: 1
- Rash: Affected/At Risk: 1/21
- Rash: Affected/At Risk (%): (4.76%)
- Red blood cells urine positive: # Events: 0
- Red blood cells urine positive: Affected/At Risk: 0/21
- Red blood cells urine positive: Affected/At Risk (%): (0%)
- Renal failure: # Events: 0
